Publication PMC7031696 (Cell chemical biology, 2019)

Test system: 3D7-MR4 trophozoite parasite-infected RBCs
Assay: Metabolomic profiling (hydrophilic metabolite changes, UHPLC-MS)
Assay type: cell-based, Plasmodium falciparum

Q: How did the “changes within the set of metabolites detected (low fold change group)” value (10 × IC50^72h, 2.5 hr, trophozoites) turn out when `CC(C)(C)NCc1cc(Nc2ccnc3cc(Cl)ccc23)c2c(c1O)CCCC2` [Naphtoquine, Naphthoquine, reference compound] was run?
A: did not induce major changes

Q: What about the “Log2(fold changes) 1_3-Bisphosphoglyceric acid” value (metabolite 1_3-Bisphosphoglyceric acid, log2 fold change) of the same compound?
A: 0.0605

Q: What about the “Log2(fold changes) 2-Hydroxy-2-methylbutanedioic acid” value (metabolite 2-Hydroxy-2-methylbutanedioic acid, log2 fold change) of the same compound?
A: 0.0920

Q: What about the “Log2(fold changes) 2-Isopropylmalic acid” value (metabolite 2-Isopropylmalic acid, log2 fold change) of the same compound?
A: 0.0000

Q: And the “Log2(fold changes) 2-dehydro-D-gluconate” value (metabolite 2-dehydro-D-gluconate, log2 fold change)?
A: -0.0605

Q: What about the “Log2(fold changes) 2-oxo-4-methylthiobutanoate” value (metabolite 2-oxo-4-methylthiobutanoate, log2 fold change) of the same compound?
A: 0.0000

Q: What about the “Log2(fold changes) 2_3-Diphosphoglyceric acid” value (metabolite 2_3-Diphosphoglyceric acid, log2 fold change) of the same compound?
A: 0.0000

Q: And the “Log2(fold changes) 3-phosphoglycerate” value (metabolite 3-phosphoglycerate, log2 fold change)?
A: 0.2077

Q: What about the “Log2(fold changes) 3-phosphoserine” value (metabolite 3-phosphoserine, log2 fold change) of the same compound?
A: -0.0700

Q: What about the “Log2(fold changes) 4-Pyridoxic acid” value (metabolite 4-Pyridoxic acid, log2 fold change) of the same compound?
A: 0.2073

Q: What about the “Log2(fold changes) 4-aminobutyrate” value (metabolite 4-aminobutyrate, log2 fold change) of the same compound?
A: 0.0263

Q: What about the “Log2(fold changes) 4-phosphopantetheine” value (metabolite 4-phosphopantetheine, log2 fold change) of the same compound?
A: 0.0000

Q: And the “Log2(fold changes) 4-phosphopantothenate” value (metabolite 4-phosphopantothenate, log2 fold change)?
A: -0.0475

Q: And the “Log2(fold changes) 5-aminopentanoic acid” value (metabolite 5-aminopentanoic acid, log2 fold change)?
A: 0.0000

Q: What about the “Log2(fold changes) 5-methyl-THF” value (metabolite 5-methyl-THF, log2 fold change) of the same compound?
A: 0.0000

Q: What about the “Log2(fold changes) 5-phosphoribosyl-1-pyrophosphate” value (metabolite 5-phosphoribosyl-1-pyrophosphate, log2 fold change) of the same compound?
A: 0.0000

Q: What about the “Log2(fold changes) 6-phospho-D-gluconate” value (metabolite 6-phospho-D-gluconate, log2 fold change) of the same compound?
A: 0.1085

Q: And the “Log2(fold changes) ADP-D-glucose” value (metabolite ADP-D-glucose, log2 fold change)?
A: 0.0398

Q: What about the “Log2(fold changes) Acetyl-glycine” value (metabolite Acetyl-glycine, log2 fold change) of the same compound?
A: 0.0000

Q: What about the “Log2(fold changes) Acetyllysine” value (metabolite Acetyllysine, log2 fold change) of the same compound?
A: -0.1423

Q: What about the “Log2(fold changes) Aminoadipic acid” value (metabolite Aminoadipic acid, log2 fold change) of the same compound?
A: 0.0000

Q: And the “Log2(fold changes) CDP” value (metabolite CDP, log2 fold change)?
A: -0.5923

Q: And the “Log2(fold changes) CDP-choline” value (metabolite CDP-choline, log2 fold change)?
A: -0.0652

Q: What about the “Log2(fold changes) CDP-ethanolamine” value (metabolite CDP-ethanolamine, log2 fold change) of the same compound?
A: -0.0101

Q: What about the “Log2(fold change) of CMP” value (metabolite CMP) of the same compound?
A: -0.1194

Q: What about the “Log2(fold change) of CTP” value (metabolite CTP) of the same compound?
A: 0.1369

Q: What about the “Log2(fold changes) Citraconic acid” value (metabolite Citraconic acid, log2 fold change) of the same compound?
A: 0.0000

Q: What about the “Log2(fold change) of D-glucarate” value (metabolite D-glucarate) of the same compound?
A: 0.1211

Q: And the “Log2(fold change) of D-gluconate” value (metabolite D-gluconate)?
A: 0.1168

Q: What about the “Log2(fold change) of D-glucosamine-1/6-phosphate” value (metabolite D-glucosamine-1/6-phosphate) of the same compound?
A: 0.0000

Q: What about the “Log2(fold change) of D-sedoheptulose-1/7-phosphate” value (metabolite D-sedoheptulose-1/7-phosphate) of the same compound?
A: -0.1410

Q: What about the “Log2(fold change) of DL-Pipecolic Acid” value (metabolite DL-Pipecolic Acid) of the same compound?
A: 0.1435

Q: And the “Log2(fold change) of DLH” value (metabolite DLH)?
A: 0.3114

Q: What about the “Log2(fold change) of DLS” value (metabolite DLS) of the same compound?
A: 0.0979

Q: What about the “Log2(fold change) of Decanoyl-CoA” value (metabolite Decanoyl-CoA) of the same compound?
A: 0.0000

Q: And the “Log2(fold change) of EV” value (metabolite EV)?
A: -0.1292

Q: And the “Log2(fold change) of FAD” value (metabolite FAD)?
A: 0.0352

Q: What about the “Log2(fold change) of FMN” value (metabolite FMN) of the same compound?
A: 0.1758

Q: What about the “Log2(fold change) of G3P/DHAP” value (metabolite G3P/DHAP) of the same compound?
A: 0.0000

Q: What about the “Log2(fold change) of GDP” value (metabolite GDP) of the same compound?
A: -0.5345

Q: What about the “Log2(fold change) GMP” value (metabolite GMP) of the same compound?
A: 0.0470

Q: What about the “Log2(fold change) GTP” value (metabolite GTP) of the same compound?
A: 0.0942

Q: What about the “Log2(fold change) HVDD” value (metabolite HVDD) of the same compound?
A: 0.0000

Q: What about the “Log2(fold change) Hexose” value (metabolite Hexose) of the same compound?
A: 0.0000

Q: And the “Log2(fold change) Hydroxyisocaproic acid” value (metabolite Hydroxyisocaproic acid)?
A: 0.0000

Q: What about the “Log2(fold change) IDP” value (metabolite IDP) of the same compound?
A: 0.0737

Q: And the “Log2(fold change) IMP” value (metabolite IMP)?
A: -0.0394

Q: What about the “Log2(fold change) Inositol” value (metabolite Inositol) of the same compound?
A: 0.0000

Q: And the “Log2(fold change) Isopentyl-PP” value (metabolite Isopentyl-PP)?
A: 0.0000

Q: What about the “Log2(fold change) L-arginino-succinate” value (metabolite L-arginino-succinate) of the same compound?
A: -0.0233

Q: And the “Log2(fold change) LD” value (metabolite LD)?
A: 0.1467

Q: And the “Log2(fold change) Myristoyl/tetradecanoyl-CoA” value (metabolite Myristoyl/tetradecanoyl-CoA)?
A: 0.0252

Q: And the “Log2(fold change) N-Acetyl-L-alanine” value (metabolite N-Acetyl-L-alanine)?
A: 0.1261

Q: What about the “Log2(fold change) N-acetyl-L-ornithine” value (metabolite N-acetyl-L-ornithine) of the same compound?
A: -0.0214

Q: And the “Log2(fold change) N-acetyl-glucosamine-1/6-phosphate” value (metabolite N-acetyl-glucosamine-1/6-phosphate)?
A: 0.0000

Q: And the “Log2(fold change) N-acetyl-glutamate” value (metabolite N-acetyl-glutamate)?
A: 0.0412

Q: What about the “Log2(fold change) N-acetyl-glutamine” value (metabolite N-acetyl-glutamine) of the same compound?
A: 0.0000

Q: What about the “Log2(fold change) N-carbamoyl-L-aspartate” value (metabolite N-carbamoyl-L-aspartate) of the same compound?
A: 0.0625

Q: And the “Log2(fold change) NAD+” value (metabolite NAD+)?
A: -0.0154

Q: What about the “Log2(fold change) NADH” value (metabolite NADH) of the same compound?
A: 0.0000

Q: What about the “Log2(fold change) NADP+” value (metabolite NADP+) of the same compound?
A: 0.0692

Q: What about the “Log2(fold change) NADPH” value (metabolite NADPH) of the same compound?
A: -0.1981

Q: What about the “Log2(fold change) O-acetyl-L-serine” value (metabolite O-acetyl-L-serine) of the same compound?
A: 0.0000

Q: What about the “Log2(fold change) Octoluse 8/1P” value (metabolite Octoluse 8/1P) of the same compound?
A: -0.0241

Q: And the “Log2(fold change) Octoluse Bisphosphate” value (metabolite Octoluse Bisphosphate)?
A: 0.0717

Q: And the “Log2(fold change) PD” value (metabolite PD)?
A: 0.0223

Q: What about the “Log2(fold change) PE” value (metabolite PE) of the same compound?
A: 0.1349

Q: What about the “Log2(fold change) PEE” value (metabolite PEE) of the same compound?
A: 0.2438

Q: What about the “Log2(fold change) PEEK” value (metabolite PEEK) of the same compound?
A: 0.3424

Q: And the “Log2(fold change) PVNF” value (metabolite PVNF)?
A: 0.2854

Q: What about the “Log2(fold change) Pyroglutamic acid” value (metabolite Pyroglutamic acid) of the same compound?
A: -0.2488

Q: And the “Log2(fold change) Pyrophosphate” value (metabolite Pyrophosphate)?
A: 0.0000

Q: And the “Log2(fold change) Ribose-5-phosphate” value (metabolite Ribose-5-phosphate)?
A: 0.1278

Q: And the “Log2(fold change) S-adenosyl-L-homocysteine” value (metabolite S-adenosyl-L-homocysteine)?
A: -0.2617

Q: And the “Log2(fold change) S-adenosyl-L-methioninamine” value (metabolite S-adenosyl-L-methioninamine)?
A: 0.0000

Q: And the “Log2(fold change) S-adenosyl-L-methionine” value (metabolite S-adenosyl-L-methionine)?
A: 0.0000

Q: What about the “Log2(fold change) S-methyl-5'-thioadenosine” value (metabolite S-methyl-5'-thioadenosine) of the same compound?
A: 0.0070

Q: What about the “Log2(fold change) SD” value (metabolite SD) of the same compound?
A: 0.1296

Q: And the “Log2(fold change) SDL” value (metabolite SDL)?
A: 0.0391

Q: What about the “Log2(fold change) SID” value (metabolite SID) of the same compound?
A: 0.2783

Q: And the “Log2(fold change) Sedoheptulose bisphosphate” value (metabolite Sedoheptulose bisphosphate)?
A: 0.1433

Q: And the “Log2(fold change) Thiamine pyrophosphate” value (metabolite Thiamine pyrophosphate)?
A: 0.0526

Q: What about the “Log2(fold changes) UDP-D-glucose” value (metabolite UDP-D-glucose, log2 fold change) of the same compound?
A: 0.0961

Q: And the “Log2(fold changes) UDP-D-glucuronate” value (metabolite UDP-D-glucuronate, log2 fold change)?
A: 0.1278

Q: And the “Log2(fold changes) UDP-N-acetyl-glucosamine” value (metabolite UDP-N-acetyl-glucosamine, log2 fold change)?
A: 0.0189

Q: And the “Log2(fold changes) UDP” value (metabolite UDP, log2 fold change)?
A: -0.6136

Q: What about the “Log2(fold changes) UMP” value (metabolite UMP, log2 fold change) of the same compound?
A: -0.1186

Q: What about the “Log2(fold changes) UTP” value (metabolite UTP, log2 fold change) of the same compound?
A: 0.1051

Q: And the “Log2(fold changes) VD” value (metabolite VD, log2 fold change)?
A: 0.0754

Q: What about the “Log2(fold changes) Xanthurenic acid” value (metabolite Xanthurenic acid, log2 fold change) of the same compound?
A: 0.0000

Q: What about the “Log2(fold changes) a-ketoglutarate” value (metabolite a-ketoglutarate, log2 fold change) of the same compound?
A: 0.1610

Q: What about the “Log2(fold changes) acetyl-CoA” value (metabolite acetyl-CoA, log2 fold change) of the same compound?
A: 0.1670

Q: What about the “Log2(fold changes) acetyl-aspartate” value (metabolite acetyl-aspartate, log2 fold change) of the same compound?
A: 0.0000

Q: And the “Log2(fold changes) acetylphosphate” value (metabolite acetylphosphate, log2 fold change)?
A: 0.0000

Q: And the “Log2(fold changes) aconitate” value (metabolite aconitate, log2 fold change)?
A: 0.1208

Q: And the “Log2(fold changes) adenine” value (metabolite adenine, log2 fold change)?
A: 0.0000

Q: What about the “Log2(fold changes) adenosine 5'-phosphosulfate” value (metabolite adenosine 5'-phosphosulfate, log2 fold change) of the same compound?
A: 0.0000
